Patent US20260217735A1, “HETEROCYCLES AND USES THEREOF” (Kumquat Biosciences Inc., priority 2023, published 2026)
pIC50: −log10 of the molar value.

Columns and labels:
KRAS G12D = target: T1, KRAS G12D (Homo sapiens, UniProt P01116, G12D); test: HTRF assay, KRAS G12D interaction with SOS1; assay type: biochemical; conditions: bins <500 nM / 500 nM to 1000 nM, read-out: Inhibition of KRAS G12D (IC50)
T1 construct: made in house; host or cells: E. coli, e.g. BL21 (DE3)

MiaPaca2 cells = test: Ras cellular assay, growth of cells with K-Ras G12C mutation; assay type: cell-based; conditions: Homo sapiens, MIA PaCa-2; cell proliferation assay; bins ≤500 nM / >500 nM; read-out: Inhibition of MiaPaca2 Cells (IC50)
How it was run: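 Anchorage-independent growth: G12C-mutant MIA PaCa-2 plated in soft agar, time-zero plate read the next day when compound was dosed (final DMSO 0.3%). After growth to day 10, MTS-type absorbance at 490/660 nm relative to time zero gave IC50 via four-parameter fitting.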

KRAS G12V = target: T2, KRAS G12V (Homo sapiens, UniProt P01116, G12V); test: HTRF assay, KRAS G12V interaction with SOS1; assay type: biochemical; conditions: bins <500 nM / 500 nM to 1000 nM, read-out: Inhibition of KRAS G12V (IC50)
T2 construct: made in house; host or cells: E. coli, e.g. BL21 (DE3)

KRAS G12S = target: T3, KRAS G12S (Homo sapiens, UniProt P01116, G12S); test: HTRF assay, KRAS G12S interaction with SOS1; assay type: biochemical; conditions: bins <500 nM / 500 nM to 1000 nM, read-out: Inhibition of KRAS G12S (IC50)
T3 construct: made in house; host or cells: E. coli, e.g. BL21 (DE3)

KRAS WT = target: T4, KRAS WT (Homo sapiens, UniProt P01116); test: HTRF assay, wildtype KRAS interaction with SOS1; assay type: biochemical; conditions: bins <500 nM / 500 nM to 1000 nM, read-out: Inhibition of KRAS WT (IC50)
T4 construct: made in house; host or cells: E. coli, e.g. BL21 (DE3)
T4 sequence (P01116 1-188 isoform P01116-2): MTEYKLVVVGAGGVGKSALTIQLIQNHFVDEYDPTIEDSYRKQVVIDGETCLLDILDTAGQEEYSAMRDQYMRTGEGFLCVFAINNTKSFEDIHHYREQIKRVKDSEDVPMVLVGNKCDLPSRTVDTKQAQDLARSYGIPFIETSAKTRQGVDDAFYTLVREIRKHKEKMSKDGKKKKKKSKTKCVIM

T2 sequence (P01116 1-188 isoform P01116-2 G12V): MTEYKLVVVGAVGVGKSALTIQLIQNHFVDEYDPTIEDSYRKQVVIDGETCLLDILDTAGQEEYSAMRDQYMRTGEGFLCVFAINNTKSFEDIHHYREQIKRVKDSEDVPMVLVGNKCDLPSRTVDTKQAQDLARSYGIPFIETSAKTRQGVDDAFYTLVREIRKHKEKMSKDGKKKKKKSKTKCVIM
T1 sequence (P01116 1-188 isoform P01116-2 G12D): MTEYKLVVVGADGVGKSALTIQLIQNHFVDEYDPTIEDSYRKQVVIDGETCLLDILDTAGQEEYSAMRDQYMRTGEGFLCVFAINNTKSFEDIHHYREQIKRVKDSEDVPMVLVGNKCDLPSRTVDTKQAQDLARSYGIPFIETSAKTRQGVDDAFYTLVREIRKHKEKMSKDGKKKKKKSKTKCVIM
T3 sequence (P01116 1-188 isoform P01116-2 G12S): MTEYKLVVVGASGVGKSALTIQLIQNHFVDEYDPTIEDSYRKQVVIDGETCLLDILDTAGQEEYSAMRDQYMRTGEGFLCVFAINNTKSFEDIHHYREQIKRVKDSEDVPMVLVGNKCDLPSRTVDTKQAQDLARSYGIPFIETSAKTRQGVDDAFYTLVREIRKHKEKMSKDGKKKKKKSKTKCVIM

SMILES | pIC50 (KRAS G12D) | pIC50 (MiaPaca2 cells) | pIC50 (KRAS G12V) | pIC50 (KRAS G12S) | pIC50 (KRAS WT)
CC[C@H]1N(C(=O)n2cnc(C#N)c2C)C[C@]12CCCCN(c1nc(OC[C@@]34CCCN3C[C@H](F)C4)nc3c(F)c(-c4ccc(F)c5sc(N)c(C#N)c45)c(Cl)cc13)C2 [Compound 152, 1-((1R,4R)-6-(7-(2-amino-3-cyano-7-fluorobenzo[b]thiophen-4-yl)-6-chloro-8-fluoro-2-(((2R,7aS)-2-fluorotetrahydro-1H-pyrrolizin-7a(5H)-yl)methoxy)quinazolin-4-yl)-1-ethyl-2,6-diazaspiro[3.6]decane-2-carbonyl)-5-methyl-1H-imidazole-4-carbonitrile] | > 6.30 | ≥ 6.30 | > 6.30 | > 6.30 | > 6.30
CCN(c1nc(OC[C@@]23CCCN2C[C@H](F)C3)nc2c(F)c(-c3ccc(F)c4sc(N)c(C#N)c34)c(I)cc12)[C@@H]1CCN(C(=O)n2cc(C)nc2C)[C@@H]1C [Compound 184, 2-amino-4-(4-(((2R,3R)-1-(2,4-dimethyl-1H-imidazole-1-carbonyl)-2-methylpyrrolidin-3-yl)(ethyl)amino)-8-fluoro-2-(((2R,7aS)-2-fluorotetrahydro-1H-pyrrolizin-7a(5H)-yl)methoxy)-6-iodoquinazolin-7-yl)-7-fluorobenzo[b]thiophene-3-carbonitrile] | > 6.30 | ≥ 6.30 | > 6.30 | > 6.30 | > 6.30
CCN(c1nc(OC[C@@]23CCCN2C[C@H](F)C3)nc2c(F)c(-c3cc(N)c(F)c(C)c3C(F)(F)F)ncc12)[C@@H]1CCN(C(=O)n2cnc(Cl)n2)[C@@H]1C [Compound 208, ((2R,3R)-3-((7-(5-amino-4-fluoro-3-methyl-2-(trifluoromethyl)phenyl)-8-fluoro-2-(((2R,7aS)-2-fluorotetrahydro-1H-pyrrolizin-7a(5H)-yl)methoxy)pyrido[4,3-d]pyrimidin-4-yl)(ethyl)amino)-2-methylpyrrolidin-1-yl)(3-chloro-1H-1,2,4-triazol-1-yl)methanone] | > 6.30 | ≥ 6.30 | > 6.30 | > 6.30 | 6.00 to 6.30
Cc1ncn(C(=O)N2CC[C@@]23CCN(c2nc(OC[C@@]45CCCN4C[C@H](F)C5)nc4c(F)c(-c5ccc(F)c6sc(N)c(C#N)c56)c(Cl)cc24)C3)c1C [Compound 147, 2-amino-4-(6-chloro-4-((R)-1-(4,5-dimethyl-1H-imidazole-1-carbonyl)-1,6-diazaspiro[3.4]octan-6-yl)-8-fluoro-2-(((2R,7aS)-2-fluorotetrahydro-1H-pyrrolizin-7a(5H)-yl)methoxy)quinazolin-7-yl)-7-fluorobenzo[b]thiophene-3-carbonitrile] | > 6.30 | ≥ 6.30 | > 6.30 | > 6.30 | > 6.30
C[C@@H]1[C@H](N(C)c2nc(OC[C@@]34CCCN3C[C@H](F)C4)nc3c(F)c(-c4ccc(F)c5sc(N)c(C#N)c45)c(Cl)cc23)CCN1C(=O)n1cnc(C2CC2)c1 [Compound 135, 2-amino-4-(6-chloro-4-(((2R,3R)-1-(4-cyclopropyl-1H-imidazole-1-carbonyl)-2-methylpyrrolidin-3-yl)(methyl)amino)-8-fluoro-2-(((2R,7aS)-2-fluorotetrahydro-1H-pyrrolizin-7a(5H)-yl)methoxy)quinazolin-7-yl)-7-fluorobenzo[b]thiophene-3-carbonitrile] | > 6.30 | ≥ 6.30 | > 6.30 | > 6.30 | > 6.30
CCN(c1nc(OCC2(CN3CC4CCC(C3)O4)CC2)nc2c(F)c(-c3ccc(F)c4sc(N)c(C#N)c34)c(C(F)(F)F)cc12)[C@@H]1CCN(C(=O)n2cnc(Cl)n2)[C@@H]1C [Compound 204, (4S)-4-(2-((1-((8-oxa-3-azabicyclo[3.2.1]octan-3-yl)methyl)cyclopropyl)methoxy)-4-(((2R,3R)-1-(3-chloro-1H-1,2,4-triazole-1-carbonyl)-2-methylpyrrolidin-3-yl)(ethyl)amino)-8-fluoro-6-(trifluoromethyl)quinazolin-7-yl)-2-amino-7-fluorobenzo[b]thiophene-3-carbonitrile] | > 6.30 | ≥ 6.30 | > 6.30 | > 6.30 | > 6.30
CC[C@@H]1[C@H](N(CC)c2nc(OC[C@@]34CCCN3C[C@H](F)C4)nc3c(F)c(-c4ccc(F)c5sc(N)c(C#N)c45)c(Cl)cc23)CCN1C(=O)n1ccnc1 [Compound 173, 2-amino-4-(6-chloro-4-(ethyl((2R,3R)-2-ethyl-1-(1H-imidazole-1-carbonyl)pyrrolidin-3-yl)amino)-8-fluoro-2-(((2R,7aS)-2-fluorotetrahydro-1H-pyrrolizin-7a(5H)-yl)methoxy)quinazolin-7-yl)-7-fluorobenzo[b]thiophene-3-carbonitrile] | > 6.30 | ≥ 6.30 | > 6.30 | > 6.30 | > 6.30
Cc1c(C#N)ncn1C(=O)N1C[C@]2(CCCCN(c3nc(OC[C@@]45CCCN4C[C@H](F)C5)nc4c(F)c(-c5ccc(F)c6sc(N)c(C#N)c56)c(Cl)cc34)C2)[C@H]1C [Compound 161, 1-((1R,4R)-6-(7-(2-amino-3-cyano-7-fluorobenzo[b]thiophen-4-yl)-6-chloro-8-fluoro-2-(((2R,7aS)-2-fluorotetrahydro-1H-pyrrolizin-7a(5H)-yl)methoxy)quinazolin-4-yl)-1-methyl-2,6-diazaspiro[3.6]decane-2-carbonyl)-5-methyl-1H-imidazole-4-carbonitrile] | > 6.30 | ≥ 6.30 | > 6.30 | > 6.30 | > 6.30
CCN(c1nc(OC[C@@]23CCCN2C[C@H](F)C3)nc2c(F)c(-c3ccc(F)c4sc(N)c(C#N)c34)c(C(F)(F)F)cc12)[C@@H]1CCN(C(=O)n2cc(C#N)nc2C)[C@@H]1C [Compound 159, 1-((2R,3R)-3-((7-(2-amino-3-cyano-7-fluorobenzo[b]thiophen-4-yl)-8-fluoro-2-(((2R,7aS)-2-fluorotetrahydro-1H-pyrrolizin-7a(5H)-yl)methoxy)-6-(trifluoromethyl)quinazolin-4-yl)(ethyl)amino)-2-methylpyrrolidine-1-carbonyl)-2-methyl-1H-imidazole-4-carbonitrile] | > 6.30 | ≥ 6.30 | > 6.30 | > 6.30 | > 6.30
CCN(c1nc(OC[C@@]23CCCN2C[C@H](F)C3)nc2c(F)c(-c3ccc(F)c4sc(N)c(C#N)c34)c(Cl)cc12)[C@@H]1CCN(C(=O)n2ccnc2C#N)[C@@H]1C [Compound 188, 1-((2R,3R)-3-((7-(2-amino-3-cyano-7-fluorobenzo[b]thiophen-4-yl)-6-chloro-8-fluoro-2-(((2R,7aS)-2-fluorotetrahydro-1H-pyrrolizin-7a(5H)-yl)methoxy)quinazolin-4-yl)(ethyl)amino)-2-methylpyrrolidine-1-carbonyl)-1H-imidazole-2-carbonitrile] | > 6.30 | ≥ 6.30 | > 6.30 | > 6.30 | > 6.30
C[C@@H]1[C@H](N(C)c2nc(OC[C@@]34CCCN3C[C@H](F)C4)nc3c(F)c(-c4ccc(F)c5sc(N)c(C#N)c45)c(Cl)cc23)CCN1C(=O)n1ccnc1 [Compound 124, 4-(4-(((2R,3R)-1-(1H-imidazole-1-carbonyl)-2-methylpyrrolidin-3-yl)(methyl)amino)-6-chloro-8-fluoro-2-(((2R,7aS)-2-fluorotetrahydro-1H-pyrrolizin-7a(5H)-yl)methoxy)quinazolin-7-yl)-2-amino-7-fluorobenzo[b]thiophene-3-carbonitrile] | > 6.30 | ≥ 6.30 | > 6.30 | > 6.30 | > 6.30
CCN(c1nc(OC[C@@]23CCCN2C[C@H](F)C3)nc2c(F)c(-c3ccc(F)c4sc(N)c(C#N)c34)c(Cl)cc12)[C@@H]1CCN(C(=O)n2ccnc2C)[C@@H]1C [Compound 163, 2-amino-4-(6-chloro-4-(ethyl((2R,3R)-2-methyl-1-(2-methyl-1H-imidazole-1-carbonyl)pyrrolidin-3-yl)amino)-8-fluoro-2-(((2R,7aS)-2-fluorotetrahydro-1H-pyrrolizin-7a(5H)-yl)methoxy)quinazolin-7-yl)-7-fluorobenzo[b]thiophene-3-carbonitrile] | > 6.30 | ≥ 6.30 | > 6.30 | > 6.30 | > 6.30
C[C@@H]1[C@H](N(C)c2nc(OC[C@@]34CCCN3C[C@H](F)C4)nc3c(F)c(-c4ccc(F)c5sc(N)c(C#N)c45)c(Cl)cc23)CCN1C(=O)n1ccnc1C#N [Compound 176, 1-((2R,3R)-3-((7-(2-amino-3-cyano-7-fluorobenzo[b]thiophen-4-yl)-6-chloro-8-fluoro-2-(((2R,7aS)-2-fluorotetrahydro-1H-pyrrolizin-7a(5H)-yl)methoxy)quinazolin-4-yl)(methyl)amino)-2-methylpyrrolidine-1-carbonyl)-1H-imidazole-2-carbonitrile] | > 6.30 | ≥ 6.30 | > 6.30 | > 6.30 | > 6.30
